The nature of data set [1]: Stability in human plasma. Type of data set: in vitro ADME. The settings on record: pooled human plasma (lithium heparin), 1 μM compound, 37° C., 1 hour incubation. Here is the method: The stability of the compounds of the invention in human plasma may be measured as follows:
Stability in Human Plasma
Blood was taken from healthy volunteers in lithium heparin tubes and plasma was prepared by centrifugal separation of blood cells at 1500 g. Plasma from at least 3 individuals was pooled and used for compound stability determination.
Compounds were prepared in 100% DMSO at a concentration of 10 mM and serially diluted to a concentration of 100 μM. Incubations were performed at a final concentration of 1 μM and were initiated by addition of 3 μl of 100 μM compound stock solution into 297 μl plasma, pre-warmed in a water bath to 37° C., followed by brief vortex mixing. 50 μl aliquots of plasma were removed at 4 timepoints over a 1 hour incubation period and quenched immediately by protein precipitation achieved by addition of the aliquot of plasma to a pre-prepared 96 well plate containing 150 μl of acetonitrile containing an appropriate internal standard. Acetonitrile quenched samples were vortex mixed followed by centrifugation for 20 minutes at 1500 g to remove the precipitated proteins. Initial compound levels (at time=0 minutes) was established by spiking compound into pre-quenched plasma at the same concentration as used in the incubation. The supernatant was then removed, diluted 1:1 with water and analysed for compound remaining by liquid chromatography-tandem mass spectrometry (Waters Acquity HPLC, Applied Biosystems API4000). The plasma elimination rate constant of the compound was calculated by fitting the peak area ratio of compound:internal standard to an exponential decay function and the half life calculated by division of the natural log of 2 by the elimination rate constant (Microsoft Excel).

Data set [2] has as its target T1, epithelial sodium channel (ENaC) (Homo sapiens, UniProt P37088+P51168+P51170).
T1 construct: host or cells: primary Human Bronchial Epithelial cells (HBECs), differentiated at air-liquid interface
T1 sequence (P37088 1-669): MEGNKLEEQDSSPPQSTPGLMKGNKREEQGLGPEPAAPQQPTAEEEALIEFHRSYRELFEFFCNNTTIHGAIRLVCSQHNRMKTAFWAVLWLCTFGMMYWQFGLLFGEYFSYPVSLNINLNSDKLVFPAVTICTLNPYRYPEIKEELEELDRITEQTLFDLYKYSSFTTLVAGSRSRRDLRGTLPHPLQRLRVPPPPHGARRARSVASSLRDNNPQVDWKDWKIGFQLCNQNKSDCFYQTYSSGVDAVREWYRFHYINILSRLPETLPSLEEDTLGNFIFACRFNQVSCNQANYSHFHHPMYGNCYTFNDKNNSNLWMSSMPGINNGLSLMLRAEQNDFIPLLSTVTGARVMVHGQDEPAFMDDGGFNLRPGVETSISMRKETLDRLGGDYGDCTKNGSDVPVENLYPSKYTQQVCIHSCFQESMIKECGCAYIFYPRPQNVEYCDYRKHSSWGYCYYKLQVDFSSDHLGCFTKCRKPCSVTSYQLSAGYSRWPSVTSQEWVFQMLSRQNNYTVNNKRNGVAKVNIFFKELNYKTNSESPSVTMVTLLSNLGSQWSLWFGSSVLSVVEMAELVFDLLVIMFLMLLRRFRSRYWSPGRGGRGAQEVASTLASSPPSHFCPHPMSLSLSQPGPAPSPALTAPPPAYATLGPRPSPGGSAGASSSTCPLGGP
T1 sequence (P51168 1-640): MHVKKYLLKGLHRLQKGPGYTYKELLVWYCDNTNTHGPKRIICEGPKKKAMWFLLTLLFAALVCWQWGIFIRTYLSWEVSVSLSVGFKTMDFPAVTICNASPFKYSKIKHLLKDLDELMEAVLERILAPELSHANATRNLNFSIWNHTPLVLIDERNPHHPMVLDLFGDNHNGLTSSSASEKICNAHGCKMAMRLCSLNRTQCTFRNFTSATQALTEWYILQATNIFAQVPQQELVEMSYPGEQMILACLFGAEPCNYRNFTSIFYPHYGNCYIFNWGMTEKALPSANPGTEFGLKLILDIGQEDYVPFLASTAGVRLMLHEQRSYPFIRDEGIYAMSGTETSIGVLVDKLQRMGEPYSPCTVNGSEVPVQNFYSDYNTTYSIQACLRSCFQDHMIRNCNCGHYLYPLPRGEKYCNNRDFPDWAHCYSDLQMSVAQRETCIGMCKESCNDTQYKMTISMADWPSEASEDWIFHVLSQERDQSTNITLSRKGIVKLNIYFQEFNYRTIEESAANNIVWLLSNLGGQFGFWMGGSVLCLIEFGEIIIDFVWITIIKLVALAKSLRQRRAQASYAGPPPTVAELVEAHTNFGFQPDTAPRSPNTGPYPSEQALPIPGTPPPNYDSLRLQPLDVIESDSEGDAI
T1 sequence (P51170 1-649): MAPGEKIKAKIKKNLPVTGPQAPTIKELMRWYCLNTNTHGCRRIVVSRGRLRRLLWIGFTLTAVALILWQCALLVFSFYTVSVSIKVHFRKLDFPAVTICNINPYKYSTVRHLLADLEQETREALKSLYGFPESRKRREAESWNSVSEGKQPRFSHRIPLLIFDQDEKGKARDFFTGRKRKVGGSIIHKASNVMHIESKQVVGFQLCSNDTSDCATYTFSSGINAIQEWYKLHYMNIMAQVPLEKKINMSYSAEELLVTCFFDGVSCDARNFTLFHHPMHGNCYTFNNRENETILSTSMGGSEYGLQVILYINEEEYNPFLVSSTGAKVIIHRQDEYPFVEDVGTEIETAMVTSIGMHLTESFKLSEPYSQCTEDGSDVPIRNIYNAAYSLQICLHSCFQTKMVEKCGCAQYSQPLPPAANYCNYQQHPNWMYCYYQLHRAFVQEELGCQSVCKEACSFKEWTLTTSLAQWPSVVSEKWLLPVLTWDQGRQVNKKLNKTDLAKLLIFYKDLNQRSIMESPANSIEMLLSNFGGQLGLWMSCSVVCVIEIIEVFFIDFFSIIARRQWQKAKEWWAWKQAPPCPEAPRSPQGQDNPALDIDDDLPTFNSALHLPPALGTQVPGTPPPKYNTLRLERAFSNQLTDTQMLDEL
In words: Short circuit current (ISC) measurements in Human Bronchial Epithelial cells (HBEC-ENaC). The class given is cell-based. As to conditions: inhibition of amiloride-sensitive ISC, HBECs at air-liquid interface, Ussing chamber, apical addition. The procedure: Human Bronchial Epithelial cells (HBECs) (Cambrex) were cultured under air-liquid interface conditions to provide a well differentiated mucociliary phenotype.
Medium was changed every 48 hours until cells were 90% confluent. […] Cells were maintained submerged for the first 7 days in culture, after which time they were exposed to an apical air interface for the remainder of the culture period. At this time, media was changed to DMEM:F12 media containing 2% v/v Ultroser G for the remainder of culture. Amphotericin B was removed from all media 3 feeds prior to use in the Ussing Chambers. Cells were used between days 7 and 21 after establishment of the apical-air interface. At all stages of culture, cells were maintained at 37° C. in 5% CO2 in an air incubator.
Short Circuit Current (ISC) Measurements
Snapwell inserts were mounted in Vertical Diffusion Chambers (Costar) and were bathed with continuously gassed Ringer solution (5% CO2 in O2; pH 7.4) maintained at 37° C. containing (in mM): 120 NaCl, 25 NaHCO3, 3.3 KH2PO4, 0.8 K2HPO4, 1.2 CaCl2, 1.2 MgCl2, and 10 glucose. The solution osmolarity was between 280 and 300 mOsmol/kg H2O for all physiological salt solutions used. Cells were voltage clamped to 0 mV (model EVC4000; WPI). RT was measured by applying a 1- or 2-mV pulse at 30-s intervals and calculating RT by Ohm's law. Data were recorded using a PowerLab workstation (ADInstruments).
Test compounds were prepared as a 10 mM stock solution in DMSO (95%). Serial 3-fold dilutions were freshly prepared in an appropriate vehicle (distilled H2O or Ringers solution). The initial concentration was added to the apical chamber as a 1000× concentrate in 5 μL, resulting in a final 1× concentration the 5 mL volume of the Ussing chamber. Subsequent additions of compound were added in a 3.3 μL volume of the 1000× serially diluted stock solution. At the completion of the concentration-response experiment, amiloride (10 μM) was added into the apical chamber to enable the total amiloride-sensitive current to be measured. An amiloride control IC50 was established at the start of each experiment.
Results are expressed as the mean % inhibition of the amiloride-sensitive ISC. […] Cell inserts were typically run in duplicate and the IC50 calculated on the mean % inhibition data.

Where a name gives a salt, the structure may show the parent alone.

Here are results for eight compounds from patent publication US8372845B2, “Pyrazine derivatives as enac blockers” (Novartis AG, priority 2010, dated 2013).

Turning to `Nc1nc(N)c(C(=O)/N=C2\NCC3(CCN(C(=O)CCc4ccc(OCC(=O)OCC(=O)N5CCOCC5)cc4)CC3)N2)nc1Cl` [Example 4.2, [4-(3-{2-[(E)-3,5-Diamino-6-chloro-pyrazine-2-carbonylimino]-1,3,8-triaza-spiro[4.5]dec-8-yl}-3-oxo-propyl)-phenoxy]-acetic acid 2-morpholin-4-yl-2-oxo-ethyl ester], the half-life (in general, the time in which the quantity being followed falls by half) at 1 μM in data set [1] was determined as 4 min. In addition, in data set [2], 450 nM corresponded to half-maximal inhibition (IC50).

Regarding `CCCN(CCC)C(=O)COC(=O)CCNC(=O)Nc1cccc(C(=O)N2CCC3(CC2)CN/C(=N\C(=O)c2nc(Cl)c(N)nc2N)N3)c1` [Example 5.1, 3-[3-(3-{2-[(E)-3,5-Diamino-6-chloro-pyrazine-2-carbonylimino]-1,3,8-triaza-spiro[4.5]decane-8-carbonyl}-phenyl)-ureido]-propionic acid dipropylcarbamoylmethyl ester], the half-life at 1 μM in data set [1] was found to be 2 min. For the same compound, the 50% inhibitory concentration (IC50) (commonly the point on the concentration scale where inhibition reaches its midpoint) in data set [2] stood at 31 nM.

Consider `Nc1nc(N)c(C(=O)/N=C2\NCC3(CCN(C(=O)c4cccc(S(=O)(=O)NCCC(=O)OCC(=O)N5CCCC5C(F)(F)F)c4)CC3)N2)nc1Cl` (stereo not shown) [Example 4.0, 3-(3-{2-[(E)-3,5-Diamino-6-chloro-pyrazine-2-carbonylimino]-1,3,8-triaza-spiro[4.5]decane-8-carbonyl}-benzenesulfonylamino)-propionic acid 2-oxo-2-(2-trifluoromethyl-pyrrolidin-1-yl)-ethyl ester], for which, in data set [1], the half-life at 1 μM is 28 min. The compound also had an IC50 in data set [2] of 101 nM.

`CCCN(CCC)C(=O)COC(=O)CCNS(=O)(=O)c1cccc(C(=O)N2CCC3(CC2)CN/C(=N\C(=O)c2nc(Cl)c(N)nc2N)N3)c1` [Example 1.0, 3-(3-{2-[(E)-3,5-Diamino-6-chloro-pyrazine-2-carbonylimino]-1,3,8-triaza-spiro[4.5]decane-8-carbonyl}-benzenesulfonylamino)-propionic acid dipropylcarbamoylmethyl ester succinate salt] registered a half-life at 1 μM in data set [1] of 2 min. In data set [2], the midpoint of inhibition, the IC50, lay at 17 nM.

`Nc1nc(N)c(C(=O)/N=C2\NCC3(CCN(C(=O)c4cccc(S(=O)(=O)NCC5(C(=O)OCC(=O)N6CCCC6C(F)(F)F)CCC5)c4)CC3)N2)nc1Cl` (stereo not shown) [Example 5.2, 1-[(3-{2-[(E)-3,5-Diamino-6-chloro-pyrazine-2-carbonylimino]-1,3,8-triaza-spiro[4.5]decane-8-carbonyl}-benzenesulfonylamino)-methyl]-cyclobutanecarboxylic acid 2-oxo-2-(2-trifluoromethyl-pyrrolidin-1-yl)-ethyl ester] registered a half-life at 1 μM in data set [1] of 39 min. In data set [2], this compound registered an IC50 of 19 nM.

As for `CC(C)(C)OC(=O)COC(=O)COc1ccc(CCC(=O)N2CCC3(CC2)CN/C(=N\C(=O)c2nc(Cl)c(N)nc2N)N3)cc1` [Example 2.1, [4-(3-{2-[(E)-3,5-Diamino-6-chloro-pyrazine-2-carbonylimino]-1,3,8-triaza-spiro[4.5]dec-8-yl}-3-oxo-propyl)-phenoxy]-acetic acid tert-butoxycarbonylmethyl ester], the half-life at 1 μM in data set [1] came to 5 min. Moreover, the IC50 in data set [2] is 30 nM.

Consider `CCCN(CCC)C(=O)COC(=O)COc1ccc(CCC(=O)N2CCC3(CC2)CN/C(=N\C(=O)c2nc(Cl)c(N)nc2N)N3)cc1Cl` [Example 3.0, [2-Chloro-4-(3-{2-[(E)-3,5-diamino-6-chloro-pyrazine-2-carbonylimino]-1,3,8-triaza-spiro[4.5]dec-8-yl}-3-oxo-propyl)-phenoxy]-acetic acid dipropylcarbamoylmethyl ester], for which the half-life at 1 μM in data set [1] is 2 min. The compound further displayed an IC50 in data set [2] of 11 nM.

As for `Nc1nc(N)c(C(=O)/N=C2\NCC3(CCN(C(=O)CCc4ccc(OCC(=O)OCC(=O)OC5CCCCC5)cc4)CC3)N2)nc1Cl` [Example 1.2, [4-(3-{2-[(E)-3,5-Diamino-6-chloro-pyrazine-2-carbonylimino]-1,3,8-triaza-spiro[4.5]dec-8-yl}-3-oxo-propyl)-phenoxy]-acetic acid cyclohexyl oxycarbonylmethyl ester], in data set [1], the half-life at 1 μM stood at 3 min. The compound further yielded an IC50 in data set [2] of 10 nM.
